In US8575357B2, “Substituted (thiazolyl-carbonyl)imidazolidinones and use thereof” (AiCuris GmbH & Co. KG, priority 2009, dated 2013):
Like-named read-outs stand apart in the source and are kept apart here.

What was measured:
reverse transcriptase = molecular target: T1, reverse transcriptase (Human immunodeficiency virus type 1 group M subtype B, UniProt P04585); assay: Biochemical reverse transcriptase assay (Reverse Transcriptase Assay, colorimetric, Roche)
T1 construct: negative control (mixture without reverse transcriptase); purchased Roche Diagnostics GmbH, Mannheim, Germany
Method: The “Reverse Transcriptase Assay, colorimetric” (Roche Diagnostics GmbH, Mannheim, Germany) is used in accordance with the manufacturer's information. The test substances are dissolved in DMSO and are used in the test diluted in 5-fold steps (final DMSO concentration 1%). The resulting values of the photometric evaluation (405/492 nm) are less than 0.1 for the negative control (mixture without reverse transcriptase) and are in the region of 1.5 for the positive control (mixture without test substance). The IC50 values of the test substances are determined as the concentration of the test substance dilution at which the measured optical density is 50% of the positive control.

HIV-1LAI = assay: H9 assay with wild-type HIV-1 (HIV-1LAI supernatant infection, AlamarBlue); format: cell-based; conditions: Human immunodeficiency virus 1, 120 h, H9 cells, 10% FCS, 5 days
Method: For the mixture for a 96-well MTP, 3 million PBLs are pelleted, suspended in 1 ml of RPMI 1640 medium/10% FCS and incubated together with a suitable amount of HIV-1LAI (NIH AIDS Research & Reference Reagent Program, Germantown, USA) at 37° C. for 2 hours (pellet infection). Unadsorbed viruses are subsequently washed out with PBS, and the infected cells are pelleted again and suspended in 18 ml of RPMI 1640 medium/10% FCS/interleukin-2 (40 U/ml). 180 μl thereof are pipetted into each well of a white 96-well MTP with 20 μl of test substance in suitable dilution. Alternatively, after preparation of the substance dilutions in the MTP, the HIV is pipetted in together with the cells and is not washed out again (supernatant infection). In order to avoid edge effects, the wells at the edge of the MTP are not used for substance dilutions. The second vertical row of the MTP contains only infected cells (virus control) and the eleventh vertical row only uninfected cells (cell control), in each case in RPMI 1640 medium/10% FCS/interleukin-2 (40 U/ml). The other wells of the MTP contain the compounds of the invention in various concentrations starting from the third vertical row, from which the test substances are diluted in 3-fold steps up to the tenth vertical row 3^7-fold. The test substances are dissolved in DMSO, whereby the final DMSO concentration in the test mixture is 1%. The test mixtures are incubated at 37° C./5% CO2. After 5 and 7 days, 50 μl of cell-free supernatant are removed from each well to determine the amount of p24 present by means of a p24 ELISA (HIV-1 p24^CA Antigen Capture Assay Kit, NCI-Frederick Cancer Research and Development Center, Frederick, USA). From the resulting values of the photometric evaluation (450/620 nm) the EC50 values of the test substances are determined as the concentration at which the amount of p24 is 50% of the untreated infected cells.
Alternatively, H9 cells (ATCC, Wesel, Germany) are employed instead of PBLs for testing the test substances. H9 cells are incubated in RPMI 1640 medium with 2% or 10% FCS as a HIV-1LAI supernatant infection at 37° C./5% CO2, (20 μl of substance dilution and 80 μl of cells/virus per well) in accordance with the pattern described above for 5 days. Subsequently, 10 μl of AlamarBlue (Invitrogen, Karlsruhe, Germany) are added to each well, and the MTPs are incubated at 37° C. for 3 hours before the fluorimetric evaluation takes place (544/590 nm). The resulting values are about 40 000 for the untreated uninfected cells and about 7000 for the untreated infected cells. In the low concentration range, the EC50 values of the test substances are determined as the concentration at which the fluorescence is 50% of the untreated uninfected cells (in each case subtracting the values of the untreated infected cells). In addition, in the high concentration range, the CC50 values of the test substances are determined as the concentration at which the fluorescence is 50% of the untreated uninfected cells (in each case subtracting the values of the untreated infected cells).

[1] = tested on: HIV-1NL4-3 reporter virus, wild-type; assay: Light assay with wild-type HI reporter virus in MT4 7F2 cells; format: cell-based; conditions: Human immunodeficiency virus 1, 120 h, read-out: EC50 (nM) MT4 7F2 cells HIV-1NL4-M3 wt 2% FCS
Method: (§1) For the mixture for a 96-well MTP, 3 million MT4 7F2 cells are pelleted, suspended in 1 ml of RPMI 1640 medium without phenol red (Invitrogen, Karlsruhe, Germany)/10% FCS/10% AIM-V (Invitrogen, Karlsruhe, Germany) and incubated together with a suitable amount of the corresponding HIV-1NL4-3 reporter virus at 37° C. for 2 hours (pellet infection). Unadsorbed viruses are subsequently washed out with PBS, and the infected cells are pelleted again and suspended in 8 ml of RPMI 1640 medium without phenol red/2% or 10% FCS/10% AIM-V. 80 μl thereof are pipetted into each well of a white 96-well MTP with 20 μl of test substance in suitable dilution. To avoid edge effects, the wells on the edge of the MTP are not used for substance dilutions. The second vertical row of the MTP contains only infected cells (virus control) and the eleventh vertical row only uninfected cells (cell control), in each case in RPMI 1640 medium without phenol red/2% or 10% FCS/10% AIM-V. The other wells of the MTP contain the compounds of the invention in various concentrations starting from the third vertical row, from which the test substances are diluted in 3-fold steps up to the tenth vertical row 3^7-fold. The test substances are dissolved in DMSO, whereby the final DMSO concentration in the test mixture is 1%. The test mixtures are incubated at 37° C./5% CO2 for five days and, after the addition of 15 μl of Lu164 substrate (5 mg/ml coelenterazine dissolved in 30 μM glutathione/DMSO, 100 mM NaCl, 1M MES, 100 mM glutathione), evaluated by luminometry. The resulting values are in the region of 1 000 000 RLUs (relative light units) for the virus control and 300 to 400 RLUs for the cell control. The EC50 values of the test substances are determined as the concentration at which the virus replication measured in RLUs is 50% of the untreated infected cells.

[2] = tested on: HIV-1NL4-3 reporter virus, reverse transcriptase mutations K103N-Y181C; assay: Light assay with inhibitor-resistant HI reporter virus in MT4 7F2 cells; format: cell-based; conditions: Human immunodeficiency virus 1, 120 h, read-out: EC50 (nM) MT4 7F2 cells HIV-1NL4-M3 K103N-Y181C 2% FCS
Method: as §1

[3] = colorimetric RT assay, final DMSO 1%, read-out: IC50 (nM) RT assay

Structure (SMILES)	IC50 (reverse transcriptase; [3])	EC50 (HIV-1LAI)	EC50 [1]	EC50 [2]	IC50 (reverse transcriptase)
O=C1CN(C(=O)c2nc(-c3cccc(Cl)c3)c(-c3cc(F)cc(Cl)c3)s2)CN1 [Example 3, 1-{[5-(3-Chloro-5-fluorophenyl)-4-(3-chlorophenyl)-1,3-thiazole-2-yl]carbonyl}imidazolidin-4-one]	20 nM	12 nM	0.6 nM	60 nM	–
N#Cc1cc(F)cc(-c2sc(C(=O)N3CNC(=O)C3)nc2-c2ccc(F)c(Cl)c2)c1 [Example 11]	–	4 nM	5 nM	69 nM	13 nM
O=C1CN(C(=O)c2nc(-c3cccc(Cl)c3)c(-c3cccc(Cl)c3)s2)CN1 [Example 20, 1-{[4,5-Bis(3-chlorophenyl)-1,3-thiazole-2-yl]carbonyl}imidazolidin-4-one]	47 nM	7 nM	1 nM	149 nM	–
